From the NIST ThermoML archive (doi:10.1016/j.jct.2010.12.014)
Where “and” joins values, the source holds several entries; their conditions need not be identical. Identical values can stand only once. Numbers after ± are expanded uncertainties.

Key:
[1] = 298.15 K; 101.33 kPa; Liquid; Vibrating tube method
[2] = refractive index (Na D-line) (dimensionless); conditions: 298.15 K; 101.33 kPa; Liquid; Standard Abbe refractometry
[3] = xn = mol fraction of the nth substance listed; conditions: 298.15 K, 101 kPa, Liquid, Vibrating tube method

Structure (SMILES) | mass density [1] [kg/m3] | refractive index [2] | further results
CCOS(=O)(=O)[O-].CCn1cc[n+](C)c1 [1-ethyl-3-methylimidazolium ethyl sulfate] | 1237.23 ± 0.43 | 1.4791 ± 0.00037 | 
CCOS(=O)(=O)[O-].CCn1cc[n+](C)c1 [1-ethyl-3-methylimidazolium ethyl sulfate] + C1CCCCC1 |  |  | mass density ([3]; x2 = 0.027): 1230.94 ± 0.41 kg/m3
CCOS(=O)(=O)[O-].CCn1cc[n+](C)c1 [1-ethyl-3-methylimidazolium ethyl sulfate] + CC1CCCCC1 |  |  | mass density ([3]; x2 = 0.026): 1232.26 ± 0.42 kg/m3
CCOS(=O)(=O)[O-].CCn1cc[n+](C)c1 [1-ethyl-3-methylimidazolium ethyl sulfate] + CCc1ccccc1 |  |  | mass density ([3]; x2 = 0.124): 1210.43 ± 0.35 kg/m3 and 1210.4 ± 0.35 kg/m3
C1CCCCC1 [cyclohexane] | 773.8 ± 0.13 | 1.4236 ± 0.00031 | 
C1CCCCCCC1 [cyclooctane] | 831.47 ± 0.24 | 1.45598 ± 0.00037 | 
C1CCCCCCC1 [cyclooctane] + CCOS(=O)(=O)[O-].CCn1cc[n+](C)c1 |  |  | mass density ([3]; x1 = 0.012): 1232.65 ± 0.42 kg/m3
CCc1ccccc1 [ethylbenzene] | 862.51 ± 0.11 | 1.49304 ± 0.00031 | 
CC1CCCCC1 [methylcyclohexane] | 765.02 ± 0.13 | 1.42062 ± 0.00031 | 
